How the values were obtained:
Assay type in all cases: cell-based, human
Rad51 = assay: Colocalization of Rad51 with γ-H2AX foci at gemcitabine-stalled replication forks; conditions: Hep3B
Source text: (§1) FIGS. 15A-15D provide inhibition of Mre11 and Rad51 recruitment at gemcitabine-stalled replication forks by hyperthermia. (15A) Hep3B cells were exposed to hyperthermia and/or gemcitabine. (15B) and (15C) Mre11 and Rad51 were recruited at gemcitabine-stalled replication forks. […] Scale bar=10 μm. (15D) Quantification of data from colocalization experiments. Data are mean Pearson correlation (a.u.) and error bars represent the SD from three independent experiments with 10 replicates each (*P<0.05, **P<0.01). Gem=Gemcitabine; HT=Hyperthermia; N/A=not applicable, i.e., in hyperthermia treated cells BrdU staining is not detected as distinct foci and therefore correlation could not be quantified; ns=not significant, by the Student unpaired two-sided t test in comparison with gemcitabine alone group. Also, see FIGS. 22-24. […]
(§2) For immunocytochemistry assay, an indirect immunofluorescence approach was used. […] Cells from an exponentially growing culture were counted and approximately 50,000 cells were seeded in each well of a 12-well plate. […]
(§3) The slides were sealed with a conventional nail polish hardener and stored at 4° C. until imaging. […] Exposure settings were set to maximize dynamic range initially and then kept constant across multiple samples to allow quantitative comparisons. […]

Hep3B cells = assay: Clonogenic assay, Hep3B cells
Procedure: Clonogenic assay estimates single-cell reproductive viability by measuring the ability of a single cell to form a colony of 50 cells or more. Clonogenic assay in this study was performed as described previously (Franken et al., 2006). Briefly, cancer cells from an exponentially growing, sub-confluent culture were trypsinized and harvested. Approximately 200 cells were counted and plated in each well of a 6-well plate. Approximately 12 hours later, the cells were adherent and treatment conditions were introduced as described herein. After varying treatments, media was replaced and cells were allowed 14 days to form colonies. Subsequently, the media was aspirated and cells were washed with PBS once. Colonies were then fixed with glutaraldehyde (6.0% v/v) and stained with crystal violet (0.5% w/v) for 30 minutes on a leveled shaker at 50 RPM. The fixation and staining solution was then aspirated and the 6-well plates were air-dried after gentle rinsing with tap water. The number of colonies in each well was counted using a colony counting grid. […]
Clonogenic assays were performed on Hep3B cells and SNU449 cells after one of two combinations of hyperthermia and gemcitabine compared with hyperthermia or gemcitabine alone. […] Next, clonogenic viability was evaluated at a gemcitabine concentration of 5 ng/ml and varied the duration of hyperthermia (30 minutes to 4 hours). […]

Mre11 = assay: Colocalization of Mre11 with γ-H2AX foci at gemcitabine-stalled replication forks; conditions: Hep3B
Source text: as §1, §2, §3

[1] = hyperthermia 42.5° C. 75 minutes then gemcitabine 10 μg/ml

## Nc1ccn([C@@H]2O[C@H](CO)[C@@H](O)C2(F)F)c(=O)n1 [gemcitabine, 2′,2′-difluoro 2′-deoxycytidine]
Rad51; gemcitabine alone (10 μg/ml)
  mean Pearson correlation, Rad51 with γ-H2AX foci: 0.24
Rad51; [1]
  mean Pearson correlation, Rad51 with γ-H2AX foci: 0.44
Hep3B cells; Hep3B, irrespective of dose schedule
  clonogenic survival, gemcitabine combined with hyperthermia: dose-dependent enhancement of gemcitabine toxicity
Hep3B cells; gemcitabine 5 ng/ml, hyperthermia 30 minutes to 4 hours, cell line not named in the sentence (Hep3B and SNU449 in FIG. 17)
  clonogenic viability, varied duration of hyperthermia: thermal dose-dependent enhancement in toxicity
Mre11; gemcitabine alone (10 μg/ml)
  mean Pearson correlation, Mre11 with γ-H2AX foci: 0.37
Mre11; [1]
  mean Pearson correlation, Mre11 with γ-H2AX foci: 0.23

Reference: patent US20170209579A1, “NON-INVASIVE RADIOFREQUENCY FIELD TREATMENT FOR CANCER THERAPY” (Baylor College of Medicine, priority 2014, published 2017)
